Results from paper PMC7939384, “In crystallo screening for proline analog inhibitors of the proline cycle enzyme PYCR1” (The Journal of Biological Chemistry, 2021).
Values joined by “and” are separate entries in the source; they are usually repeats but may differ in a detail not shown here. Equal values may be shown once.

How the values were obtained:
human PYCR1 [1] = target: T1, human PYCR1 (Homo sapiens, UniProt P32322); assay: biochemical; settings: for Ki: competitive with P5C, NADH fixed 175 μM; for kcat: kcat for L-P5C at fixed NADH 175 μM, global fit of the data set with this analog
T1 sequence (P32322 1-300): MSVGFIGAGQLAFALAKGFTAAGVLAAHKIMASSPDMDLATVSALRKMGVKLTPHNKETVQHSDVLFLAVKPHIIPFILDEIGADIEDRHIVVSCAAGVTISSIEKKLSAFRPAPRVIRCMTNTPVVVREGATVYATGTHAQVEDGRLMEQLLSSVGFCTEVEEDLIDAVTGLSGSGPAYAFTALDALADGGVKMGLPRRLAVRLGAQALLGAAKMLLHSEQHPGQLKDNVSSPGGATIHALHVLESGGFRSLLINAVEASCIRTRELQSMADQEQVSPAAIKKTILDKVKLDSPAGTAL
Protocol: (§1) Over two dozen proline analogs (Fig. 2) were screened using electron density from X-ray crystallography as the readout for binding to human PYCR1. […] Because the compounds bind in the P5C/proline site, the mechanism of inhibition was assumed to be competitive with P5C. Therefore, steady-state kinetic measurements were performed with L-P5C as the variable substrate (0-1000 μM) and NADH fixed (175 μM) (Fig. 3). For each compound, the data were fit globally to a competitive inhibition model (Equation 1) to obtain an inhibition constant, Ki.
B, THFA. C, CPC. D, T4C. E, T2C. F, NFLP. The data were measured in 50 mM Tris (pH 7.5) with 1 mM EDTA disodium salt while holding NADH fixed at 175 μM and varying D,L-P5C (0–2000 μM). The concentration of the substrate L-P5C was considered to be half the total D,L-P5C concentration added to the assays. Curves represent global fits of the data to a competitive inhibition model showing initial velocity in units of µM [NAD^+] s^−1 as a function of L-P5C concentration (µM).
A C-terminal truncation variant of human PYCR1, which includes residues 1–300 of the full-length 319-residue enzyme, was used for kinetics and X-ray crystallography ([18]). PYCR1 was overexpressed in Escherichia coli BL21 (DE3) competent cells and purified using methods similar to those previously reported ([18]). Harvested cells were lysed via sonication in a mixture containing DNase I, lysozyme, and 0.2 mM phenylmethylsulfonyl fluoride protease inhibitor, and then the insoluble material was removed via centrifugation at 16,000 rpm for 1 h at 4°C. The resulting lysate was purified by gravity-flow chromatography on a column containing Ni^2+–nitrilotriacetic acid resin (Qiagen) pre-equilibrated with binding buffer consisting of 50 mM HEPES, 300 mM NaCl, 10 mM imidazole, and 5% (w/v) glycerol at pH 7.8 (buffer A). The column was washed with buffer A supplemented with 30 mM imidazole, and then the bound protein was eluted with buffer A supplemented with 300 mM imidazole. Elution fractions containing PYCR1 were identified by SDS-PAGE and prepared for further purification by size-exclusion chromatography by dialyzing into 300 mM NaCl, 2% (w/v) glycerol, and 50 mM HEPES at pH 7.5. Size-exclusion chromatography was performed on a HiLoad 16/600 Superdex 200 column equilibrated with 50 mM HEPES, pH 7.8, 300 mM NaCl, and 5% (w/v) glycerol. Purified PYCR1 was concentrated to 8 mg/ml and stored at 4°C for subsequent crystallization trials.
Kinetic measurements were performed in a BioTek Epoch 2 microplate spectrophotometer using Corning 96-well UV-transparent microplates. Activity assays were performed by monitoring the consumption of NADH at 340 nm (ε340 = 6220 M^−1 cm^−1) using P5C as the substrate. D,L-P5C was synthesized as described previously ([45]), quantified using o-aminobenzaldehyde (o-AB), and stored in 1 M HCl at 4°C. Neutralization of D,L-P5C to pH 7.5 was performed immediately prior to assays using 1 M Tris (pH 7.5) and 6 M NaOH. The concentration of the substrate L-P5C was assumed to be half the total D,L-P5C concentration added to the assays.
The following microplate protocol was employed. Substrate mixtures containing P5C, NADH, EDTA, and Tris buffer were prepared in a deep well block for each P5C concentration. Mixtures containing enzyme and various concentrations of the inhibitor were prepared in microcentrifuge tubes and incubated on ice in buffer containing 50 mM HEPES pH 7.8, 300 mM NaCl, and 5% (w/v) glycerol. The final concentration of PYCR1 in the assay was 6.25 nM. Twenty μl of the enzyme-analog mixture was added to microplate wells using a single-channel pipette, and then the reaction was initiated by addition of 180 μl of the substrate mixtures using a multi-channel pipettor. The reaction traces were followed for 35 min.

human PYCR1 [2] = target: T1, human PYCR1; assay: In crystallo screening: electron density as readout for binding (crystal soaking); parameters: includes residues 1–300 of the full-length 319-residue enzyme; inferred from the Ni-NTA purification; made in house; host or cells: Escherichia coli BL21 (DE3); settings: apo crystals soaked with 25–500 mM of the proline analog
Protocol: as §1
06594), D,L-thiazolidine-2-carboxylate (Sigma-Aldrich no. 467995), L-thiazolidine-4-carboxylate (Sigma-Aldrich no. T27502), 1,3-thiazolidine-2,4-dicarboxylate (Sigma-Aldrich no. CDS000186), dimethyl 1,3-thiazolidine-2,4-dicarboxylate (Sigma-Aldrich no. […] 287067), L-4-hydroxyproline methyl ester (hydrochloride) (Sigma-Aldrich no. 30681), cis-4-hydroxy-D-proline methyl ester (hydrochloride) (Sigma-Aldrich no. […] 441562), L-(+)-mandelic acid (Sigma-Aldrich no. 63460), sodium-L-lactate (Sigma-Aldrich no. 71718), D-cycloserine (Sigma-Aldrich no. C6880). The proline analogs were added to apo crystals during cryoprotection by soaking the crystals in the reservoir solution supplemented with cryoprotectant (PEG 200 for the PEG 3350 form; glycerol for the NaCl form) and then in the same cryobuffer supplemented with 25–500 mM of the proline analog. Following equilibration, the crystals were harvested and rapidly plunged into liquid nitrogen.
The complex of PYCR1 with THFA was obtained by soaking a C2 crystal (NaCl form) for 15 min in a cryo-buffer consisting of the reservoir solution (3 M NaCl and 0.1 M HEPES at pH 7.5–8.0) supplemented with 30% glycerol and 50 mM THFA, followed by flash-cooling in liquid nitrogen. Crystals of the NFLP complex were prepared by soaking P2_12_12 crystals in the reservoir solution (250 mM Li2SO4, 19% (w/v) PEG 3350, 0.1 M HEPES, pH 7.5) supplemented with 20% (v/v) PEG 200 and 100 mM NFLP. The complexes with L-T2C and L-T4C were prepared similarly, except the Li2SO4 concentration was reduced to 25 mM and 50 mM of either L-T4C or D,L-T2C was included.

PYCR1 = tested on: PYCR1; parameters: method as in PMID 31362921; settings: reported IC50 against PYCR1; cited from earlier work
[3] = Ki, 50 mM Tris pH 7.5, global fit

SMILES	Ki (human PYCR1 [1]; Ki (estimated), rounded values)	Ki (human PYCR1 [1]; [3]) [µM]	kcat (human PYCR1 [1]) [s⁻¹]	electron density evidence for binding (in words) (human PYCR1 [2])	inhibition of PYCR1 (in words) (human PYCR1 [1])	IC50 (PYCR1) [µM]
O=C(O)C1CCCC1 [CPC, cyclopentanecarboxylate]	> 1000 µM and 1000 µM	1190 ± 61	35 ± 1	–	–	–
O=C(O)C1NCCS1 [L-T2C, L-thiazolidine-2-carboxylate]	~400 µM	438 ± 29	37 ± 1	Electron density evidence for binding was observed	–	–
CC(=O)N1CCC[C@H]1C(=O)O [N-acetyl L-proline]	–	–	–	–	did not inhibit PYCR1	–
O=C(O)[C@@H]1CSCN1 [L-T4C, L-thiazolidine-4-carboxylate]	~600 µM	598 ± 39	54 ± 2	Electron density evidence for binding was observed	–	–
O=C(O)[C@@H]1CCCO1 [THFA, (S)-(−)-tetrahydro-2-furoic acid]	> 1000 µM and 2000 µM	2250 ± 121	69 ± 1	Electron density evidence for binding was observed	only negligibly inhibits PYCR1	–
C#CCN(C)Cc1ccccc1 [pargyline]	–	–	–	–	–	200
